# Results reported in patent publication US20150266864A1, “HETEROAROMATIC COMPOUNDS, METHOD FOR PREPARING THE COMPOUNDS, PHARMACEUTICAL COMPOSITIONS, USES AND METHOD FOR TREATING ACUTE AND CHRONIC PAIN” (CRISTÁLIA PRODUTOS QUÍMICOS FARMACÊUTICOS LTDA, priority 2012, published 2015).
# Where a name gives a salt, the structure may show the parent alone.
# Legend:
# [1] = system: rats subjected to sciatic nerve CCI; assay: Chronic constrictive injury (CCI) of the sciatic nerve, thermal hyperalgesia, paw withdrawal test; format: in vivo, rat
# Method: The chronic constrictive injury (CCI) was induced by sciatic nerve ligation according to the method described by Bennett and Xie [Bennett. G. J.; Xie, Y. K. Pain […], 33: 87-107]. Male Wistar rats, weighing 180-240 g, were anesthetized with a mixture of ketamine and xylazine (60 mg/kg and 5 mg/kg, respectively), intraperitoneally. Through an incision of 0.5 cm (parallel and spaced about 10 mm from the left femur) the sciatic nerve was identified. With a thin glass rod, a small segment of sciatic nerve was exposed and four loosely ligatures were placed around the sciatic nerve spaced 1 mm each other using a 3-0 silk suture thread. After the procedure, the skin was sutured and a topical antiseptic was applied.
# To assess animal behavior in response to hyperalgesic phenomenon resulting from sciatic nerve chronic constrictive injury, the model described by Hargreaves and Dubner was used [Hargreaves K., Dubner R., Brown F., Flores C., Joris J. Pain 1988, 32 (1): 77-88]. In this regard, paw withdrawal in response to a painful phenomenon was performed. This is a nociceptive test which involves a peripheral short thermal stimulus induced by the radiant heat of an incandescent lamp bulb. […] Radiant heat has an advantage over the other modes of thermal stimulation in that it produces no tactile stimulus. [Le Bars D., Gozariu M., Cadden S. W. Pharmacology Reviews, 2001, 53 (4), 597-652]. In this assay, a plantar test analgesimeter (ITC Life Science Inc, USA) was used.
# Animals were placed in transparent acrylic boxes with tempered glass pane floor for 40 minutes to acclimate. After this period, the radiant heat was applied to the footpads of animals's hindpaws until they make the movement of paw withdrawal. The paw withdrawal latency was defined as the time recorded from the beginning of the radiant heat stimulus and the paw withdrawal. For each paw, three latency records were made, and the average value was used to define the paw withdrawal time control The maximum time that each animal was exposed to the radiant heat source (cut-off) was defined as three times the paw withdrawal time control, to avoid tissue injuries in animals's paws.
# The day before surgery, rats, defined as “control before surgery”, were placed in acrylic boxes to the paw withdrawal test. On the 7th day after the surgery (CCI), the paw withdrawal test was again performed in order to verify neuropathic pain has been effectively developed in the left paw—defined as “post-surgery control.”
# The paw withdrawal test was assessed during the days 1, 3, and 7 of the treatment (with amitriptyline hydrochloride or the compounds of examples of the instant invention) and on days 1, 3, and 7 after treatment interruption.
# (§1) Differences were considered significant when p<0.05.
# Swiss-type male mice = assay: RotaRod performance test, motor coordination
# Method: The assessment of motor coordination in mice, by the rotarod performance test, was carried out to detect any possible sedative or muscle relaxant effect caused by the compounds of the present invention, previously tested in acute and neuropathic pain models. This test was carried out according to the method of described by Dunham & Miya and animal motor coordination was evaluated using RotaRod apparatus [Dunham M. S. & Miya. R. T. (1957). J. Amer. Pharmac. Assoc. Sci. Edit. 1957, 46, 208-209].
# The RotaRod apparatus (Model 412 EFF, Insight Equipements, Brazil) is a device that measures motor coordination and thus evaluates balance alterations in mice. The apparatus consists of an acrylic box splited into four compartments with a rotational cylinder among them. The cylinder rotates at constant speed driven by a motor and regulated to the constant speed mode of 5-37 revolutions per minute (rpm). In this study the speed was set up to 9 rpm.
# To remain on the rotational cylinder, the animal needs to move around, so that the motor coordination can be quantified. The four compartments have drop detection system, through the impact, a microprocessor circuit, for timing the permanence of the animal at the compartment, and for counting the number of falls.
# The day before the test, Swiss-type male mice (19-25 g) were placed on the rotational cylinder, set up to the constant speed mode of 9 rpm for adaptation and learning. A group of 10 mice were used for each tested compound, and the total period spent on the rotational cylinder (in seconds) was recorded for a period of 180 seconds (cut off time) and it was accept a maximum of three falls for each animal. Motor coordination was assessed at times 0 (before treatment), 15, 30, 60 and 120 minutes after compounds administration at a dose of 32.25 μmol/kg.
# All compounds were administered intraperitoneally (ip).
# The Student's t-test was also used to compare means between two experimental groups. Differences were considered significant when p<0.05.
# rats subjected to SNL [2] = assay: Spinal nerve ligation (SNL) L5 model, thermal hyperalgesia; format: in vivo, rat
# Method: (§2) This experimental model was proposed by Kim and Chung [Kim, S. H.; Chung, J. M. Pain 1992, 50: 355-363] and consists of ligation of spinal nerves. Male Wistar rats, 180-220 g, were anesthetized with a mixture of ketamine and xylazine (60 mg/kg and 5 mg/kg, respectively) intraperitoneally. After the dorsal region asepsy, an incision was made between L5 and S1. The L6 transverse process was removed for locating the nerves L4 and L5, which were carefully isolated, and tight ligation of the L5 nerve with 6.0 silk thread was made, interrupting flow of the axon of the nerve. After this procedure, para-spinal muscles and skin were sutured, and then a topical antiseptic was applied. False operated animals (sham) were subjected to the same procedure, however the spinal nerve was not ligated.
# This method aims to evaluate the animal behavior in response to hyperalgesic phenomenon resulting from the injury induced by the ligament of spinal nerve (L5). In this regard, paw withdrawal in response to thermal stimulus was used, and the thermal stimulus was induced by the radiant heat of an incandescent lamp bulb. The paw withdrawal test was performed as described for the assessment of thermal hyperalgesia in the sciatic nerve chronic constrictive injury model.
# as §1
# (§3) The treatment started on the 7th day after surgery. Compounds were diluted in water or DMSO and administered through intraperitoneal route on daily basis, during 7 days, at a dose of […]. The effectiveness of tested compounds was assessed on days 1, 3, and 7 days after treatment, always before the next administration of the compound. Latencies were also assessed on days 1, 3, and 7 after treatment interruption.
# rats subjected to SNL [3] = assay: Spinal nerve ligation (SNL) L5 model, mechanical allodynia (digital Von Frey); format: in vivo, rat; details: after 7 days of treatment, 32.25 μmol/kg ip
# Method: as §2
# To evaluate the development of mechanical allodynia, digital analgesimeter (Model EFF301; Insight Equipments), digitalized version coupled to a pointed filament (Von Frey model variant) was used. This test aims to assess changes in tactile sensitivity in response to a mechanical stimulus as a result of a neural damage. The device consisted of a hand-held force transducer fitted with a sensor tip, through which a pressure with increasing strength is applied against the footpad of the animals hindpaw to assess the threshold of paw withdrawal, that is, the digital analgesimeter records the maximal strength, in grams (g), in which the animal withstands until the paw withdrawal reflex.
# Animals were placed in individual acrylic boxes and let to acclimate for 30 min before the beginning of the test. After this period, the thresholds of hindpaw withdrawal were determinded. For each hindpaw, five records of the withdrawal thresholds were made, and the average for each hindpaw was defined as the paw withdrawal threshold control.
# as §3, §1
# [4] = first day of treatment, 32.25 μmol/kg ip
# [5] = male, Swiss, mouse, in vivo, 30 min
# [6] = male, Swiss, mouse, in vivo, 60 min
# [7] = male, Swiss, mouse, in vivo, 120 min
# [8] = after 7 days of 32.25 μmol/kg ip
smiles,measurement,setting,value
"Cl.Cl.Fc1ccc(-c2n[nH]cc2CCN2CCCCC2)cc1.O (hydrate or solvate) [C3, 1-{2-[3-(4-fluorophenyl)-1H-pyrazol-4-yl]ethyl}piperidine dihydrochloride monohydrate]",melting point,,277 to 279 °C
"Cl.Cl.Fc1ccc(-c2n[nH]cc2CCN2CCOCC2)cc1.O (hydrate or solvate) [C9, 4-{2-[3-(4-fluorophenyl)-1H-pyrazol-4-yl]ethyl}morpholine dihydrochloride monohydrate]",melting point,,113 to 126 °C (dec.)
"CCN1CCN(CCc2c[nH]nc2-c2ccc(F)cc2)CC1.Cl.Cl.Cl.O.O.O (hydrate or solvate) [C12, 1-ethyl-4-{2-[3-(4-fluorophenyl)-1H-pyrazol-4-yl]ethyl}piperazine trihydrochloride trihydrate]",melting point,,226 to 237 °C (dec.)
"Fc1ccc(-c2n[nH]cc2CCN2CCCCC2)cc1 [C1, 1-{2-[3-(4-fluorophenyl)-1H-pyrazol-4-yl]ethyl}piperidine]",melting point,,145 to 146 °C
"Cl.Fc1ccc(-c2nocc2CCN2CCCCC2)cc1 [C5, 1-{2-[3-(4-fluorophenyl)-1,2-oxazol-4-yl]ethyl}piperidine hydrochloride]","antinociceptive effect, paw withdrawal latency vs post-surgery control",[1]; [4],antinociceptive effects in the first day of treatment
same,Mice residence time on the rotational cylinder,Swiss-type male mice; [5],178.6 s
same,Mice residence time on the rotational cylinder,Swiss-type male mice; [6],173.4 s
same,Mice residence time on the rotational cylinder,Swiss-type male mice; [7],179.2 s
same,Mice residence time on the rotational cylinder,"Swiss-type male mice; male, Swiss, mouse, in vivo, ip, 15 min",180.0 s
"CC(=O)O.Fc1ccc(-c2ncncc2CCN2CCCCC2)cc1 [C6, 1-{2-[4-(4-fluorophenyl)pyrimidin-5-yl]ethyl}piperidinium acetate with 0.8 water molecules]","antinociceptive effect, paw withdrawal latency vs post-surgery control",[1]; [4],antinociceptive effects in the first day of treatment
"CC(=O)O.OC1(c2ccc(Cl)cc2)CCN(CCc2cncnc2-c2ccc(F)cc2)CC1 [C16, 4-(4-chlorophenyl)-4-hydroxy-1-{2-[4-(4-fluorophenyl)pyrimidin-5-yl]ethyl}piperidinium acetate]","antinociceptive effect, paw withdrawal latency vs post-surgery control",[1]; [4],antinociceptive effects in the first day of treatment
same,"latency increase, statistical significance","[1]; first day of treatment, 32.25 μmol/kg ip, p<0.05 or p<0.005",the latency increase was statistically significant
same,animal residence time on the rotational cylinder compared to controls,"Swiss-type male mice; 15 minutes after administration, 32.25 μmol/kg","equal to the time observed for the negative control, and significantly higher than the time observed for the control amitriptyline hydrochloride"
same,Mice residence time on the rotational cylinder,"Swiss-type male mice; T 15 min after ip administration, 32.25 μmol/kg, 9 rpm, cut off 180 s, mean ± SEM",178.6 s
same,Mice residence time on the rotational cylinder,"Swiss-type male mice; T 30 min after ip administration, 32.25 μmol/kg (diazepam 2 mg/kg), 9 rpm, cut off 180 s, mean ± SEM",178.8 s
same,Mice residence time on the rotational cylinder,"Swiss-type male mice; T 60 min after ip administration, 32.25 μmol/kg (diazepam 2 mg/kg), 9 rpm, cut off 180 s, mean ± SEM",150.8 s
same,Mice residence time on the rotational cylinder,"Swiss-type male mice; T 120 min after ip administration, 32.25 μmol/kg (diazepam 2 mg/kg), 9 rpm, cut off 180 s, mean ± SEM",126.3 s
"CCOC(=O)C1(c2ccccc2)CCN(CCc2c[nH]nc2-c2ccc(F)cc2)CC1 [C18, Ethyl 1-{2-[3-(4-fluorophenyl)-1H-pyrazol-4-yl]ethyl}-4-phenylpiperidine-4-carboxylate]","antinociceptive effect, paw withdrawal latency vs post-surgery control",[1]; [4],antinociceptive effects in the first day of treatment
same,melting point,,138 to 139.5 °C
"CN(C)CCC=C1c2ccccc2CCc2ccccc21 [amitriptyline hydrochloride, reference compound]",antinociceptive effect after treatment interruption,[1]; [8],the antinociceptive effect was observed only after the first day
same,paw withdrawal latency,"[1]; day 7 of treatment, 32.25 μmol/kg ip daily, p<0.005",significantly increased
same,effect on thermal hyperalgesia after treatment interruption,rats subjected to SNL [2]; [8],the analgesic effect is not maintained
same,"paw withdrawal latency, thermal hyperalgesia","rats subjected to SNL [2]; after 7 days of treatment, 32.25 μmol/kg ip",significantly increased
same,Mice residence time on the rotational cylinder,Swiss-type male mice; [5],151.0 s
same,Mice residence time on the rotational cylinder,Swiss-type male mice; [6],175.8 s
same,Mice residence time on the rotational cylinder,Swiss-type male mice; [7],161.8 s
same,"paw withdrawal threshold, mechanical allodynia",rats subjected to SNL [3],no significant threshold increase
